Results from ChEMBL document CHEMBL5316364, “Genipin Analogue (G300) Inhibits Adipogenic Differentiation of Human Bone Marrow-Derived Mesenchymal Stem Cells through the Suppression of Adipogenic Promoting Factors” (J Nat Prod, 2023).
Activity calls are given as the source filed them. No cut-off for these calls is given here.

Columns and labels:
[1] = test system: 3T3-L1; assay: Anti-adipogenic activity in mouse 3T3-L1 preadipocytes assessed as decrease in adipocyte numbers at 20 uM measured after 7 days by Oil Red O staining based inverted phase contrast microscopic analysis; format: functional, cell-based; conditions: time 7.0 day
[2] = test system: Mesenchymal stem cells; assay: Anti-adipogenic activity in human derived bone marrow mesenchymal stem cells assessed as glycerol release at 20 uM incubated for 12 hrs by colorimetric analysis relative to control; format: functional
[3] = test system: Mesenchymal stem cells; assay: Anti-adipogenic activity in human derived bone marrow mesenchymal cells assessed as downregulation of GLUT4 mRNA expression at 10 to 20 uM measured on day 21 by qRT-PCR analysis; format: functional, cell-based; conditions: dose 10-20 µM, time 21.0 day
[4] = test system: Mesenchymal stem cells; assay: Inhibition of lipid droplet accumulation in human bone marrow derived Mesenchymal stem cells at 5 to 20 uM incubated for 21 days by Oil red o staining based microplate reader analysis; format: functional, cell-based; conditions: dose 5-20 µM, time 21.0 day
[5] = test system: Mesenchymal stem cells; assay: Cytotoxicity against human bone marrow derived Mesenchymal stem cells assessed as reduction in cell viability at 1 to 20 uM incubated for 1 to 10 days by MTT assay; format: toxicity, cell-based; conditions: dose lower 1 µM, time lower 1 day, dose upper 20 µM, time upper 10 day
[6] = test system: Mesenchymal stem cells; assay: Anti-adipogenic activity in human derived bone marrow mesenchymal cells assessed as downregulation of FABP4 mRNA expression at 10 to 20 uM measured on day 21 by qRT-PCR analysis; format: functional, cell-based; conditions: dose 10-20 µM, time 21.0 day
[7] = test system: Mesenchymal stem cells; assay: Upregulation of adipsin level in human bone marrow derived mesenchymal stem cells at 5 to 20 uM measured after 48 hrs by flow cytometric analysis; format: functional, cell-based; conditions: dose 5-20 µM
[8] = test system: Mesenchymal stem cells; assay: Downregulation of RBP4 level in human bone marrow derived mesenchymal stem cells at 5 to 20 uM measured after 48 hrs by flow cytometric analysis; format: functional, cell-based; conditions: dose 5-20 µM
[9] = test system: Mesenchymal stem cells; assay: Anti-adipogenic activity in human derived bone marrow derived Mesenchymal stem cells assessed as reduction in PPARgamma expression at 20 uM measured after 7 days by Western blot analysis; format: functional, cell-based; conditions: time 7.0 day
[10] = test system: Mesenchymal stem cells; assay: Anti-adipogenic activity against human bone marrow derived Mesenchymal stem cells assessed as downregulation of C/EBPalpha mRNA expression at 20 uM measured after 7 days by qRT-PCR analysis; format: functional, cell-based; conditions: time 7.0 day
[11] = test system: Mesenchymal stem cells; assay: Antidiabetic activity in human bone marrow mesenchymal stem cells assessed as glucose uptake by measuring 2-DG6P level at 15 to 20 uM by glucose uptake assay; format: functional, cell-based; conditions: dose 15-20 µM
[12] = test system: Mesenchymal stem cells; assay: Anti-adipogenic activity against human bone marrow derived Mesenchymal stem cells assessed as downregulation of PPARG mRNA expression at 20 uM measured after 7 days by qRT-PCR analysis; format: functional, cell-based; conditions: time 7.0 day
[13] = test system: Mesenchymal stem cells; assay: Anti-adipogenic activity in human derived bone marrow mesenchymal stem cells assessed as glycerol release at 5 uM incubated for 12 hrs by colorimetric analysis relative to control; format: functional
[14] = test system: Mesenchymal stem cells; assay: Downregulation of IL6 level in human bone marrow derived mesenchymal stem cells at 5 to 20 uM measured after 48 hrs by flow cytometric analysis; format: functional, cell-based; conditions: dose 5-20 µM
[15] = test system: Mesenchymal stem cells; assay: Anti-adipogenic activity in human bone marrow derived Mesenchymal stem cells assessed as reduction in adipocyte count at 5 to 20 uM after 21 days by Oil Red O staining based inverted phase contrast microscopic analysis; format: functional, cell-based; conditions: dose 5-20 µM, time 21.0 day
[16] = test system: Mesenchymal stem cells; assay: Downregulation of MCP-1 level in human bone marrow derived mesenchymal stem cells at 5 to 20 uM measured after 48 hrs by flow cytometric analysis; format: functional, cell-based; conditions: dose 5-20 µM
[17] = test system: Mesenchymal stem cells; assay: Anti-adipogenic activity in human derived bone marrow mesenchymal stem cells assessed as reduction in adipsin release measured after 21 days by flow cytometry analysis; format: functional, cell-based; conditions: time 21.0 day
[18] = test system: Mesenchymal stem cells; assay: Anti-adipogenic activity in human derived bone marrow derived Mesenchymal stem cells assessed as downregulation of C/EBPalpha protein expression at 20 uM measured after 7 days by western blot analysis; format: functional, cell-based; conditions: time 7.0 day
[19] = test system: Mesenchymal stem cells; assay: Inhibition of lipid droplet accumulation in human bone marrow derived Mesenchymal stem cells at 10 to 20 uM by Oil red o staining based microplate reader analysis; format: functional, cell-based; conditions: dose 10-20 µM
[20] = test system: Mesenchymal stem cells; assay: Anti-adipogenic activity in human derived bone marrow mesenchymal stem cells assessed as glycerol release at 10 uM incubated for 12 hrs by colorimetric analysis relative to control; format: functional
[21] = test system: Mesenchymal stem cells; assay: Anti-adipogenic activity in human derived bone marrow mesenchymal stem cells assessed as reduction in adiponectin release measured after 21 days by flow cytometry analysis; format: functional, cell-based; conditions: time 21.0 day
[22] = test system: Mesenchymal stem cells; assay: Downregulation of IL8 level in human bone marrow derived mesenchymal stem cells at 5 to 20 uM measured after 48 hrs by flow cytometric analysis; format: functional, cell-based; conditions: dose 5-20 µM
[23] = test system: Mesenchymal stem cells; assay: Anti-adipogenic activity in human derived bone marrow mesenchymal stem cells assessed as reduction in […] release measured after 21 days by flow cytometry analysis; format: functional, cell-based; conditions: time 21.0 day
[24] = test system: Mesenchymal stem cells; assay: Anti-adipogenic activity against human bone marrow derived Mesenchymal stem cells assessed as downregulation of C/EBPbeta mRNA expression at 20 uM measured after 7 days by qRT-PCR analysis; format: functional, cell-based; conditions: time 7.0 day
[25] = test system: Mesenchymal stem cells; assay: Anti-adipogenic activity in human derived bone marrow mesenchymal cells assessed as downregulation of LPL mRNA expression at 10 to 20 uM measured on day 21 by qRT-PCR analysis; format: functional, cell-based; conditions: dose 10-20 µM, time 21.0 day
[26] = test system: Mesenchymal stem cells; assay: Upregulation of adiponectin level in human bone marrow derived mesenchymal stem cells at 5 to 20 uM measured after 48 hrs by flow cytometric analysis; format: functional, cell-based; conditions: dose 5-20 µM
[27] = test system: Mesenchymal stem cells; assay: Anti-adipogenic activity against human bone marrow derived Mesenchymal stem cells assessed as downregulation of SREBP-1c mRNA expression at 20 uM measured after 7 days by qRT-PCR analysis; format: functional, cell-based; conditions: time 7.0 day

## COC(=O)C1=CO[C@@H](OC)[C@@H]2C(Cn3cc(COc4cc(C=O)ccc4OC)nn3)=CC[C@H]12
[1]
  Activity: Active

## COC(=O)C1=CO[C@@H](OC)[C@@H]2C(Cn3cc(COCc4ccc(OC)c(OC)c4)nn3)=CC[C@H]12
[1]
  Activity: Active

## COC(=O)C1=CO[C@@H](OC)[C@@H]2C(Cn3cc(CCBr)nn3)=CC[C@H]12
[1]
  Activity: Active

## COC(=O)C1=CO[C@@H](OC)[C@@H]2C(Cn3cc(C(O)(c4ccccc4)c4ccccc4)nn3)=CC[C@H]12
[1]
  Activity: Active

## COC(=O)C1=CO[C@@H](OC)[C@@H]2C(Cn3cc(CCCOC(c4ccccc4)(c4ccccc4)c4ccccc4)nn3)=CC[C@H]12
[2]
  Activity: 33%
[3]
  Activity: Active
[4]
  inhibition: Active
[5]
  Activity: Non-Toxic
[6]
  Activity: Active
[7]
  Activity: Active
[8]
  Activity: Active
[9]
  Activity: Active
[10]
  Activity: Active
[11]
  Activity: Active
[12]
  Activity: Active
[13]
  Activity: 17%
[1]
  Activity: Active
[14]
  Activity: Active
[15]
  Activity: Active
[16]
  Activity: Active
[17]
  Activity: Active
[18]
  Activity: Active
[19]
  inhibition: Active
[20]
  Activity: 25%
[21]
  Activity: Active
[22]
  Activity: Active
[23]
  Activity: Active
[24]
  Activity: Active
[25]
  Activity: Active
[26]
  Activity: Active
[27]
  Activity: Active

## COC(=O)C1=CO[C@@H](OC)[C@@H]2C(Cn3cc(COCc4cc(OC)ccc4OC)nn3)=CC[C@H]12
[1]
  Activity: Active

## COC(=O)C1=CO[C@@H](O)[C@@H]2C(CO)=CC[C@H]12
[1]
  Activity: Active

## CCCCCCCCCCCCCCCCCCOCc1cn(CC2=CC[C@@H]3C(C(=O)OC)=CO[C@@H](OC)[C@H]23)nn1
[1]
  Activity: Active

## COC(=O)C1=CO[C@@H](OC)[C@@H]2C(Cn3cc(COCc4ccccc4)nn3)=CC[C@H]12
[1]
  Activity: Active

## COC(=O)C1=CO[C@@H](OC)[C@@H]2C(Cn3cc(COCCc4ccccc4)nn3)=CC[C@H]12
[1]
  Activity: Active

## COC(=O)C1=CO[C@@H](OC)[C@@H]2C(Cn3cc(C4(O)CCCCC4)nn3)=CC[C@H]12
[1]
  Activity: Active

## COC(=O)C1=CO[C@@H](OC)[C@@H]2C(Cn3cc(-c4ccccc4)nn3)=CC[C@H]12
[1]
  Activity: Active

## COC(=O)C1=CO[C@@H](OC)[C@@H]2C(Cn3cc(COc4ccc5ccc(=O)oc5c4)nn3)=CC[C@H]12
[1]
  Activity: Active
